Data taken from patent US20080262084A1, “Stable Emulsion Compositions for Intravenous Administration Having Preservatie Efficacy” (priority 2004, published 2008).

Columns and labels:
Swiss Albino Mice = assay: Safety study with Monolaurin, daily intravenous administration for 7 days (Example XII); conditions: Monolaurin group versus EDTA group
Experimental: Compositions of Example IX, X and M were studied along with 5% Dextrose Injection as control.
The objective of this study was to access the safety of Monolaurin as such and in comparison with EDTA when administered into mice by an intravenous route.
Forty healthy Swiss albino mice weighing on an average 20-22 g were used in this study.
Toxicity was determined after administration of study materials.
Data was recorded as Mean +SD and median values for histopathological data.
Student's paired t-test was used to compare basal and final values of the parametric data within the same group and Student's unpaired t-test was used to compare values between two different groups. A ‘p’ value of <0.05 was considered as significant.
All experimental animals were observed daily for seven days for following parameters:
Each animal was weighed before the administration of study material and daily during the treatment period.

[1] = tested on: broad spectrum microbial growth; conditions: Edetate at concentrations of 0.0025% and below; cited from earlier work
rats = conditions: administered orally; cited from earlier work
[2] = tested on: Candida albicans ATCC 10231, Pseudomonas aeruginosa ATCC 9027, Escherichia coli ATCC 8739 and Staphylococcus aureus ATCC 6538; assay: Preservative efficacy, overall result on the four standard U.S.P. organisms; format: cell-based; conditions: Monolaurin at 0.01% w/v in the emulsion, organisms tested
Experimental: The said aliquots were incubated at a temperature of 20-25° C. for fungal culture and 30 to 35° C. for bacterial culture as recommended under “Antimicrobial effectiveness testing” in United States Pharmacopeia, Chapter 51 (U.S.P. <51>).
(for fungal cultures) and 32° C.±2° C. (for bacterial cultures). The viable counts of the test organisms were determined after 24 hours and 48 hours.

[3] = cited from earlier work

Row | Compound | Histopathological data (Swiss Albino Mice) | preventing a no more than 10 fold increase in broad spectrum microbial growth [1] | LD50 (rats) | effectiveness as preservative (preventing a growth of not more than 10 fold) [2] | solubility in aqueous media ([3]; aqueous media) | solubility in fat solvents ([3]; chloroform, benzene, ethanol, or acetone)
1 | O=C([O-])CN(CCN(CC(=O)[O-])CC(=O)O)CC(=O)O.[Na+].[Na+] [EDTA, Disodium edetate, reference compound] | compare well | ineffective |  |  |  | 
2 | CCCCCCCCCCCC(=O)OCC(O)CO (stereo not shown) [Monolaurin] | compare well |  | about 53,000 mg/kg body weight | effective as a preservative | insoluble | highly soluble
